Data on seven compounds can be found in patent US20230149483A1, “SHORT-CHAIN FATTY ACID USE TO MITIGATE ANT[…] VIRULENCE GENE TRANSFER IN THE GUT” (Iowa State University Research Foundation, Inc., priority 2021, published 2023).

Structures are written as SMILES. Like-named read-outs stand apart in the source and are kept apart here.

Assay [1] deals with conjugation pair E. coli APEC-02 to E. coli HS-4 (plasmid pAPEC-02-211A-ColV, IncF). The class given is cell-based.
In assay [2] the test system is conjugation pair E. coli APEC-02 to E. coli HS-4 in chicken ceca explants. The class given is cell-based. The protocol:
Ex vivo ceca explants serve as models for bacterial host interactions. Plasmid transfer and its inhibition by SCFAs were tested using chicken ceca explants to mimic in vivo conditions. Chicken ceca explants were harvested from 2 week-old chickens, cultured in vitro, and used in co-culture with donors/recipients in the presence or absence of SCFAs.

Assay [3] concerns conjugation pairs S. Kentucky CVM29188 to E. coli HS-4 and E. coli APEC-02 to E. coli HS-4. Conditions: for reduction of donor and recipient strains / transconjugant populations: physiological concentrations of SCFAs in the chicken gut, both conjugation pairs.
Protocol: Physiological concentrations of SCFAs in the chicken gut were added to broth conjugations with the conjugation pairs 1) S. Kentucky CVM29188 to E. coli HS-4, and 2) E. coli APEC-02 to E. coli HS-4 (FIG. 3).
The subject of assay [4] is transfer of conjugative plasmid pCVM29188_146 (IncF) between E. coli MG1655 (pCVM29188_146) and E. coli HS-4. The experiment in a line: In vitro broth conjugation with propionate at fly media concentrations. Conditions: as low as half the concentrations of standard Drosophila fly media. The class given is cell-based.
[5] abbreviates: broth conjugation, varying molar concentrations between 0 and 1 molar (FIG. 4).
Where [6] appears, read: 25 mM, each SCFA used individually, ceca explants from 2 week-old chickens.

Take `CC(=O)O` [acetic acid]: the transconjugant populations entry in assay [1] is reported as “significantly reduced”. In addition, in assay [2], the “efficacy in inhibition of plasmid transfer” value (“efficacy in inhibition” for short) is recorded as “showed efficacy”. Also, in assay [3], the “reduction of donor and recipient strains” value is reported as “not”; the transconjugant populations result is “significantly reduced”.
Turning to `CCCC(=O)O` [butyric acid, butyric (butanoic) acid], in assay [1] (setting [5]), the transconjugant populations entry is “significantly reduced”. In addition, the “efficacy in inhibition” value in assay [2] (setting [6]) was “showed efficacy”. Moreover, in assay [3], the “reduction of donor and recipient strains” value was “not”; the transconjugant populations result was “significantly reduced”.
Regarding `O=CO` [formic acid], in assay [1], the transconjugant populations entry is “significantly reduced”. Further, in assay [2], the “efficacy in inhibition” value is on record as “showed efficacy”.
As to `CC(C)C(=O)O` [isobutyric acid, isobutyric (2-methylbutanoic) acid], the transconjugant populations entry in assay [1] (setting [5]) is on record as “significantly reduced”. Further, the “efficacy in inhibition” value in assay [2] (setting [6]) is “showed efficacy”.
Take `CC(C)CC(=O)O` [isovaleric acid, isovaleric (3-methylbutanoic)]: in assay [1] (setting [5]), the transconjugant populations result is recorded as “significantly reduced”. The “efficacy in inhibition” value in assay [2] (setting [6]) is listed as “showed efficacy”.
As for `CCC(=O)O` [propionic acid], in assay [4], the “conjugation frequency (transconjugants divided by donors)” value is reported as “significant decreases”. Moreover, the transconjugant populations result in assay [1] (setting [5]) is “significantly reduced”. In addition, in assay [2] (setting [6]), the “efficacy in inhibition” value is “showed efficacy”. Also, the conjugation entry in assay [3] (physiological concentrations of propionate in the chicken gut) is recorded as “did not significantly reduce”.
Take `CCCCC(=O)O` [valeric acid, valeric (pentanoic) acid]: in assay [1] (setting [5]), the transconjugant populations result is listed as “significantly reduced”. Besides, in assay [2] (setting [6]), the “efficacy in inhibition” value is “showed efficacy”.
